Assay results reported in US12157746B2, “Tetrahydro-1H-pyrazino[2,1-a]isoindolylquinoline compounds for the treatment of autoimmune disease” (F. HOFFMANN-LA ROCHE AG, priority 2018, dated 2024).

What follows are compounds tested against T1, human TLR9 (Homo sapiens, UniProt Q9NR96) (assay: HEK293-Blue-hTLR-9 cells assay). Settings: HEK293-Blue-hTLR9 cells, ODN2006 stimulation, 20 hrs, SEAP reporter; read-out: HEK/hTLR9 IC50.
T1 sequence (Q9NR96 26-1032): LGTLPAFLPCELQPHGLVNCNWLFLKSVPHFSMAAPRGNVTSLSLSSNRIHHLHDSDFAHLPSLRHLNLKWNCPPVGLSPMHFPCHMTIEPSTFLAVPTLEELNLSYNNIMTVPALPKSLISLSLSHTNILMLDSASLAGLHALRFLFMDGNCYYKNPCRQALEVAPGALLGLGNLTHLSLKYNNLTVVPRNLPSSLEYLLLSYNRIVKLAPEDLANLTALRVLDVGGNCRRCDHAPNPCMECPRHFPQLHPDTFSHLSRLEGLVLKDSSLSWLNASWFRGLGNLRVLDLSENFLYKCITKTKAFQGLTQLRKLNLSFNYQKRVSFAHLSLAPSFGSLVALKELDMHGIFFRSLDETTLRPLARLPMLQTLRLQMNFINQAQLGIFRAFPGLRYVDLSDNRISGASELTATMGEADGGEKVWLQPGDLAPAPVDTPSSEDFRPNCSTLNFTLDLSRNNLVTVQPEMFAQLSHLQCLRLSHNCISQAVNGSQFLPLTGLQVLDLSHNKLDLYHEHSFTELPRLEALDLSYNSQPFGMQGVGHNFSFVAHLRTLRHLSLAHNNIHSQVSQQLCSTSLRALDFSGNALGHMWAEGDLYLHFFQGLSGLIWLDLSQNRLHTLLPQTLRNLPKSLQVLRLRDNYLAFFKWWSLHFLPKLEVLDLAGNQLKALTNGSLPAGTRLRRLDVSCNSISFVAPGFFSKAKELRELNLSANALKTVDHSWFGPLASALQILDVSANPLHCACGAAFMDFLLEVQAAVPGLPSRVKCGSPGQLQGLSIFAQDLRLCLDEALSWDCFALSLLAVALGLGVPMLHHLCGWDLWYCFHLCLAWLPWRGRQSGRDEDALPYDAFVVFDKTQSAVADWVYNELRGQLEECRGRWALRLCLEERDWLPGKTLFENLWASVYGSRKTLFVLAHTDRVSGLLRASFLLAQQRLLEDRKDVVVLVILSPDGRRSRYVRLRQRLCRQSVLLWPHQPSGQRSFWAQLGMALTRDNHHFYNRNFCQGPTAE
Format: cell-based
From the text: HEK293-Blue-hTLR-9 Cells Assay:
A stable HEK293-Blue-hTLR-9 cell line was purchased from InvivoGen (Cat. #: hkb-htlr9, San Diego. California USA). These cells were originally designed for studying the stimulation of human TLR9 by monitoring the activation of NF-κB. A SEAP (secreted embryonic alkaline phosphatase) reporter gene was placed under the control of the IFN-β minimal promoter fused to five NF-κB and AP-1-binding sites. The SEAP was induced by activating NF-κB and AP-1 via stimulating HEK-Blue hTLR9 cells with TLR9 ligands. Therefore the reporter expression was declined by TLR9 antagonist under the stimulation of a ligand, such as ODN2006 (Cat. #: tlrl-2006-1, Invivogen, San Diego, California USA), for incubation of 20 hrs. The cell culture supernatant SEAP reporter activity was determined using QUANTI-Blue™ kit (Cat. #: rep-qb1, Invivogen, San Diego, California, USA) at a wavelength of 640 nm, a detection medium that turns purple or blue in the presence of alkaline phosphatase.
HEK293-Blue-hTLR9 cells were incubated at a density of 250.000-450,000 cells/mL in a volume of 170 μL in a 96-well plate in Dulbecco's Modified Eagle's medium (DMEM) containing 4.5 g/L glucose, 50 U/mL penicillin, […], […], 2 mM L-glutamine, 10% (v/v) heat-inactivated fetal bovine serum with addition of 20 μL test compound 1n a serial dilution in the presence of final DMSO at 1% and 10 μL of 20 uM ODN2006 in above DMEM, perform incubation under 37° C. in a CO2 incubator for 20 hrs. Then 20 μL of the supernatant from each well was incubated with 180 μL Quanti-blue substrate solution at 37° C. for 2 h and the absorbance was read at 620˜655 nm using a spectrophotometer. The signaling pathway that TLR9 activation leads to downstream NF-κB activation has been widely accepted, and therefore similar reporter assay was modified for evaluating TLR9 antagonist.

| Compound | IC50 |
| --- | --- |
| CN[C@H]1CN(c2ccc3c(c2)CN2[C@H](C)CN(c4ccc(C#N)c5ncccc45)C[C@H]32)C[C@@H]1OC [Example 23, 5-[(4R,10bS)-8-[(3S,4S)-3-methoxy-4-(methylamino)pyrrolidin-1-yl]-4-methyl-3,4,6,10b-tetrahydro-1H-pyrazino[2,1-a]isoindol-2-yl]quinoline-8-carbonitrile] | 92.4 nM |
| C[C@@H]1CN(c2ccc(C#N)c3ncccc23)C[C@@H]2c3cccc(N4CCNCC4)c3CN12 [Example 8, 5-[(4R,10bS)-4-methyl-7-piperazin-1-yl-3,4,6,10b-tetrahydro-1H-pyrazino[2,1-a]isoindol-2-yl]quinoline-8-carbonitrile] | 150 nM |
| C[C@@H]1CN(c2ccc(C#N)c3ncccc23)C[C@@H]2c3ccc(NC4CNC4)cc3CN12 [Example 28, 5-[(4R,10S)-8-(azetidin-3-ylamino)-4-methyl-3,4,6,10b-tetrahydro-1H-pyrazino[2,1-a]isoindol-2-yl]quinoline-8-carbonitrile] | 83.4 nM |
| C[C@@H]1CN(c2ccc(C#N)c3ncccc23)C[C@@H]2c3ccc(N[C@@H]4CNC[C@@H]4F)cc3CN12 [Example 32, 5-[(4R,10bS)-8-[[(3R,4S)-4-fluoropyrrolidin-3-yl]amino]-4-methyl-3,4,6,10b-tetrahydro-1H-pyrazino[2,1-a]isoindol-2-yl]quinoline-8-carbonitrile] | 89.2 nM |
| C[C@@H]1CN(c2ccc(C#N)c3ncccc23)C[C@@H]2c3ccc(N4C[C@@H](N)[C@H](O)C4)cc3CN12 (single isomer, unassigned) [Example 40B] | 70.8 nM |
| C[C@@H]1CN(c2ccc(C#N)c3ncccc23)C[C@@H]2c3ccc(N4CCNCC(O)C4)cc3CN12 (stereo partly drawn) [Example 15, 5-[(4R,10bS)-8-(6-hydroxy-1,4-diazepan-1-yl)-4-methyl-3,4,6,10b-tetrahydro-1H-pyrazino[2,1-a]isoindol-2-yl]quinoline-8-carbonitrile] | 83.2 nM |
| CO[C@@H]1CNC[C@H]1Nc1ccc2c(c1)CN1[C@H](C)CN(c3ccc(C#N)c4ncccc34)C[C@H]21 [Example 34, 5-[(4R,10bS)-8-[[(3R,4R)-4-methoxypyrrolidin-3-yl]amino]-4-methyl-3,4,6,10b-tetrahydro-1H-pyrazino[2,1-a]isoindol-2-yl]quinoline-8-carbonitrile] | 66.6 nM |
| C[C@@H]1CN(c2ccc(C#N)c3ncccc23)C[C@@H]2c3ccc(N4CCNC[C@@H]4CO)cc3CN12 [Example 10, 5-[(4R,10bS)-8-[(2R)-2-(hydroxymethyl)piperazin-1-yl]-4-methyl-3,4,6,10b-tetrahydro-1H-pyrazino[2,1-a]isoindol-2-yl]quinoline-8-carbonitrile] | 92.5 nM |
| C[C@@H]1CN(c2ccc(C#N)n3nccc23)C[C@@H]2c3ccc(N4CC5CNCC(C4)O5)cc3CN12 [Example 107, 4-[(4R,10bS)-4-methyl-8-(9-oxa-3,7-diazabicyclo[3.3.1]nonan-3-yl)-3,4,6,10b-tetrahydro-1H-pyrazino[2,1-a]isoindol-2-yl]pyrazolo[1,5-a]pyridine-7-carbonitrile] | 67.9 nM |
| CO[C@@H]1CN(c2ccc3c(c2)CN2[C@H](C)CN(c4ccc(C#N)n5ncc(F)c45)C[C@H]32)C[C@H]1N [Example 113, 4-[(4R,10bS)-8-[(3R,4R)-3-amino-4-methoxy-pyrrolidin-1-yl]-4-methyl-3,4,6,10b-tetrahydro-1H-pyrazino[2,1-a]isoindol-2-yl]-3-fluoro-pyrazolo[1,5-a]pyridine-7-carbonitrile] | 135 nM |
| CO[C@@H]1CN(c2ccc3c(c2)CN2[C@H](C)CN(c4ccc(C#N)n5nccc45)C[C@H]32)CC[C@@H]1N [Example 105, 4-[(4R,10bS)-8-[(3R,4S)-4-amino-3-methoxy-1-piperidyl]-4-methyl-3,4,6,10b-tetrahydro-1H-pyrazino[2,1-a]isoindol-2-yl]pyrazolo[1,5-a]pyridine-7-carbonitrile] | 163 nM |
| C[C@@H]1CN(c2ccc(C#N)c3ncccc23)C[C@@H]2c3ccc(N4CCNC[C@@](C)(O)C4)cc3CN12 [Example 55B, 5-[(4R,10bS)-8-[(6R)-6-hydroxy-6-methyl-1,4-diazepan-1-yl]-4-methyl-3,4,6,10b-tetrahydro-1H-pyrazino[2,1-a]isoindol-2-yl]quinoline-8-carbonitrile] | 156 nM |
| C[C@@H]1CN(c2ccc(C#N)c3ncccc23)C[C@@H]2c3ccc(OCCN(C)C)cc3CN12 [Example 25, 5-[(4R,10bS)-8-[2-(dimethylamino)ethoxy]-4-methyl-3,4,6,10b-tetrahydro-1H-pyrazino[2,1-a]isoindol-2-yl]quinoline-8-carbonitrile] | 116 nM |

Results, then the compound that gave them:

| IC50 | Compound |
| --- | --- |
| 123 nM | C[C@@H]1CN(c2ccc(C#N)c3ncccc23)C[C@@H]2c3ccc(N4CC(C)(N)C4)cc3CN12 [Example 39, 5-[(4R,10bS)-8-(3-amino-3-methyl-azetidin-1-yl)-4-methyl-3,4,6,10b-tetrahydro-1H-pyrazino[2,1-a]isoindol-2-yl]quinoline-8-carbonitrile] |
| 126 nM | C[C@@H]1CN(c2ccc(C#N)n3nccc23)C[C@@H]2c3ccc(N4C[C@@H](N)[C@](C)(O)C4)cc3CN12 [Example 108, 4-[(4R,10bS)-8-[(3R,4R)-4-amino-3-hydroxy-3-methyl-pyrrolidin-1-yl]-4-methyl-3,4,6,10b-tetrahydro-1H-pyrazino[2,1-a]isoindol-2-yl]pyrazolo[1,5-a]pyridine-7-carbonitrile] |
| 113 nM | CO[C@H]1CN(c2ccc3c(c2)CN2C3CN(c3ccc(C#N)c4ncccc34)C[C@H]2C)C[C@@H]1N (single isomer, unassigned) [Example 16A] |
| 142 nM | C[C@@H]1CN(c2ccc(C#N)n3nccc23)C[C@@H]2c3ccc(N4CC[C@@](C)(N)C4)cc3CN12 [Example 103, 4-[(4R,10bS)-8-[(3R)-3-amino-3-methyl-pyrrolidin-1-yl]-4-methyl-3,4,6,10b-tetrahydro-1H-pyrazino[2,1-a]isoindol-2-yl]pyrazolo[1,5-a]pyridine-7-carbonitrile] |
| 43.3 nM | C[C@@H]1CN(c2ccc(C#N)c3ncccc23)C[C@@H]2c3ccc(C4CNC4)cc3CN12 [Example 29, 5-[(4R,10bS)-8-(azetidin-3-yl)-4-methyl-3,4,6,10b-tetrahydro-1H-pyrazino[2,1-a]isoindol-2-yl]quinoline-8-carbonitrile] |
| 69.9 nM | [2H]c1ccc2c(N3C[C@@H](C)N4Cc5cc(N6CC7CNCC(C6)O7)ccc5[C@H]4C3)ccc(C#N)c2n1 [Example 93, 5-[(4R,10bS)-4-methyl-8-(9-oxa-3,7-diazabicyclo[3.3.1]nonan-3-yl)-3,4,6,10b-tetrahydro-1H-pyrazino[2,1-a]isoindol-2-yl]-2-deuterio-quinoline-8-carbonitrile] |
| 130 nM | C[C@@H]1CN(c2ccc(C#N)c3ncccc23)C[C@@H]2c3ccc(C4CCNCC4)cc3CN12 [Example 9, 5-[(4R,10bS)-4-methyl-8-(4-piperidyl)-3,4,6,10b-tetrahydro-1H-pyrazino[2,1-a]isoindol-2-yl]quinoline-8-carbonitrile] |
| 118 nM | C[C@@H]1CN(c2ccc(C#N)c3ncccc23)C[C@@H]2c3ccc(N4CCNCC(C)(O)C4)cc3CN12 (stereo partly drawn) [Example 55, 5-[(4R,10S)-8-(6-hydroxy-6-methyl-1,4-diazepan-1-yl)-4-methyl-3,4,6,10b-tetrahydro-1H-pyrazino[2,1-a]isoindol-2-yl]quinoline-8-carbonitrile] |
